Laboratory results published in patent US20240252677A1, “ONE-COMPONENT DELIVERY SYSTEM FOR NUCLEIC ACIDS” (The Trustees of the University of Pennsylvania, priority 2021, published 2024).
Values belong to the molecule of their own block, whether it stands above or below them.

Tests used:
[1] = pKa measurements of individual IAJD molecules by titration; type: physicochemical; details: individual IAJD molecule; for Avg pKa: average of pKa 1-3; for pKa 1: measurement 1; for pKa 2: measurement 2; for pKa: ethanol saturated with NaCl, titrated with 0.1 M aqueous HCl, Table 15
Procedure: pKa measurements of individual IAJD Molecules was performed as follows. IAJD Molecules were first dissolved in ethanol (Sat. with NaCl) at a concentration of 1.5 mg/mL and the solution volume was 3 mL.
Then 0.1 M HCl solution was added to the above ethanol solution with an increment of 7.5 μL. The resulting pH after each addition of HCl solution was measured by an Thermo Scientific Orion Star A121 meter with Thermo Scientific Orion 8220BNWP pH probe. pKa was determined using the half equivalence point titration.

[2] = DLS size of dendrimersomes assembled from glycerol-JDs in water at different concentrations; type: physicochemical; details: for Dh (nm): size distribution by intensity
Procedure: Assembly of all eight glycerol-JDs was performed by injection of their ethanol solution (50 μL) into 1 mL of Milli-Q water. The size distribution and structure of resulting DSs were analyzed by DLS (FIG. 84) and cryo-TEM. […] In a certain concentration range the size of DSs increased with the concentration of JDs injected in water or buffer. […] The dimensions of the assemblies were identical when the concentrations of the JDs in water were identical. Sizes of assemblies from mixtures of 1R and 1S in different ratios (1:3, 1:1 and 3:1), were also identical (FIG. 84). […] With the exception of the rotation of polarized light, the physical properties of enantiomers and their racemic mixtures must be identical.
Dynamic light scattering (DLS). Hydrodynamic diameters (Dh) of the self-assemblies of dendrimer molecules and their size distributions were measured on a Malvern Instruments particle sizer (Zetasizer® Nano S, Malvern Instruments, UK) equipped with 4 mW He—Ne laser (633 nm) and avalanche photodiode positioned at […] to the beam and temperature controlled cuvette holder. Experiments were performed at 25° C. in triplicate. The distribution of radius was intensity.

Avg pKa [1]: 6.36
pKa 1 ([1]; titration): 6.38
pKa 2 ([1]; titration): 6.34
SMILES: CCCCCCCCCCCCOc1cc(OCCCCCCCCCCCC)cc(C(=O)OCC(COC(=O)c2cc(OCCCCCCCCCCCC)cc(OCCCCCCCCCCCC)c2)(COC(=O)c2cc(OCCOCCOCCOC(=O)CCCN(C)C)c(OCCOCCOCCOC)c(OCCOCCOCCOC(=O)CCCN(C)C)c2)NC(=O)c2cc(OCCOCCOCCOC)c(OCCOCCOCCOC)c(OCCOCCOCCOC)c2)c1 [IAJD 41]

Avg pKa [1]: 6.20
pKa 1 ([1]; titration): 6.20
SMILES: CCCCCCCCCCCCOc1cc(CNC(=O)c2cc(OCCOCCOCCOC)c(OCCOCCOCCOC(=O)CCCN(C)C)c(OCCOCCOCCOC)c2)cc(OCCCCCCCCCCCC)c1 [IAJD 2]

PDI ([2]; JD 0.025 mg·mL−1 in water): 0.272
Dh (nm) ([2]; JD 0.025 mg·mL−1 in water): 72 nm
PDI ([2]; JD 0.05 mg·mL−1 in water): 0.241
Dh (nm) ([2]; JD 0.05 mg·mL−1 in water): 97 nm
PDI ([2]; JD 0.1 mg·mL−1 in water): 0.183
Dh (nm) ([2]; JD 0.1 mg·mL−1 in water): 123 nm
PDI ([2]; JD 0.25 mg·mL−1 in water): 0.153
Dh (nm) ([2]; JD 0.25 mg·mL−1 in water): 144 nm
PDI ([2]; JD 0.5 mg·mL−1 in water): 0.152
Dh (nm) ([2]; JD 0.5 mg·mL−1 in water): 162 nm
PDI ([2]; JD 0.75 mg·mL−1 in water): 0.236
Dh (nm) ([2]; JD 0.75 mg·mL−1 in water): 224 nm
PDI ([2]; JD 1.0 mg·mL−1 in water): 0.233
Dh (nm) ([2]; JD 1.0 mg·mL−1 in water): 266 nm
SMILES: CCCCCCCCCCCCOc1cc(OCCCCCCCCCCCC)cc(C(=O)OCC(COC(=O)c2cc(OCCCCCCCCCCCC)cc(OCCCCCCCCCCCC)c2)OC(=O)C(C)(COC(=O)c2cc(OCCOCCOCCOC)c(OCCOCCOCCOC)c(OCCOCCOCCOC)c2)COC(=O)c2cc(OCCOCCOCCOC)c(OCCOCCOCCOC)c(OCCOCCOCCOC)c2)c1 [Compound 3, (3,5)-12G1-GC-(achiral)-BMPA-(3,4,5)-3EO-G2]

Avg pKa [1]: 6.38
pKa 1 ([1]; titration): 6.43
pKa 2 ([1]; titration): 6.32
SMILES: CCCCCCCCCCCCOc1cc(OCCCCCCCCCCCC)cc(C(=O)OCC(COC(=O)c2cc(OCCCCCCCCCCCC)cc(OCCCCCCCCCCCC)c2)(COC(=O)c2cc(OCCOCCOCCOC)c(OCCOCCOCCOC)c(OCCOCCOCCOC(=O)CCCN(C)C)c2)NC(=O)c2cc(OCCOCCOCCOC)c(OCCOCCOCCOC)c(OCCOCCOCCOC)c2)c1 [IAJD 38]

PDI ([2]; JD 0.025 mg·mL−1 in water): 0.391
Dh (nm) ([2]; JD 0.025 mg·mL−1 in water): 100 nm
PDI ([2]; JD 0.05 mg·mL−1 in water): 0.266
Dh (nm) ([2]; JD 0.05 mg·mL−1 in water): 102 nm
PDI ([2]; JD 0.1 mg·mL−1 in water): 0.136
Dh (nm) ([2]; JD 0.1 mg·mL−1 in water): 119 nm
PDI ([2]; JD 0.25 mg·mL−1 in water): 0.180
Dh (nm) ([2]; JD 0.25 mg·mL−1 in water): 132 nm
PDI ([2]; JD 0.5 mg·mL−1 in water): 0.183
Dh (nm) ([2]; JD 0.5 mg·mL−1 in water): 166 nm
PDI ([2]; JD 0.75 mg·mL−1 in water): 0.233
Dh (nm) ([2]; JD 0.75 mg·mL−1 in water): 210 nm
PDI ([2]; JD 1.0 mg·mL−1 in water): 0.291
Dh (nm) ([2]; JD 1.0 mg·mL−1 in water): 284 nm
SMILES: CCCCCCCCCCCCOc1cc(OCCCCCCCCCCCC)cc(C(=O)OCC(C)(COC(=O)c2cc(OCCCCCCCCCCCC)cc(OCCCCCCCCCCCC)c2)C(=O)OC(COC(=O)c2cc(OCCOCCOCCOC)c(OCCOCCOCCOC)c(OCCOCCOCCOC)c2)COC(=O)c2cc(OCCOCCOCCOC)c(OCCOCCOCCOC)c(OCCOCCOCCOC)c2)c1 [Compound 4, (3,5)-12G2-BMPA-GC-(achiral)-(3,4,5)-3EO-G1]

Avg pKa [1]: 6.56
pKa 1 ([1]; titration): 6.52
pKa 2 ([1]; titration): 6.52
pKa 3 ([1]; titration, measurement 3): 6.64
SMILES: CCCCCCCCCCCCOc1cc(CNC(=O)c2cc(OCCOCCOCCOC(=O)CCCN(C)C)c(OCCOCCOCCOCc3ccccc3)c(OCCOCCOCCOC(=O)CCCN(C)C)c2)cc(OCCCCCCCCCCCC)c1 [IAJD 9]

pKa ([1]; titration): 7.06
SMILES: CCCCCCCCCCCCOc1cc(COC(=O)CCCN(C)C)cc(OCCCCCCCCCCCC)c1 [IAJD 64, 3,5-Bis(dodecyloxy)benzyl 4-(dimethylamino)butanoate]

pKa ([1]; titration): 6.44
SMILES: CCCCCCCCCCCCOc1cc(CNC(=O)CCCN2CCN(C)CC2)cc(OCCCCCCCCCCCC)c1 [IAJD 70, N-(3,5-bis(dodecyloxy)benzyl)-4-(4-methylpiperazin-1-yl)butanamide]

Avg pKa [1]: 6.43
pKa 1 ([1]; titration): 6.43
SMILES: CCCCCCCCCCCCOc1cc(CNC(=O)c2cc(OCCOCCOCCOC(=O)CCCN(C)C)c(OCCOCCOCCOC)c(OCCOCCOCCOC(=O)CCCN(C)C)c2)cc(OCCCCCCCCCCCC)c1 [IAJD 4]
